The record followed here is patent US20240390350A1, “PHENYL CORE COMPOUNDS AS MGLU5 NEGATIVE ALLOSTERIC MODULATORS AND METHODS OF MAKING AND USING THE SAME” (Vanderbilt University, priority 2021, published 2024).

pIC50: −log10 of the molar value.

This assay deals with T1, human mGlu5 (Homo sapiens, UniProt P41594).
T1 construct: expressed in transfected cells; host or cells: HEK 293A
T1 sequence (P41594 21-1212): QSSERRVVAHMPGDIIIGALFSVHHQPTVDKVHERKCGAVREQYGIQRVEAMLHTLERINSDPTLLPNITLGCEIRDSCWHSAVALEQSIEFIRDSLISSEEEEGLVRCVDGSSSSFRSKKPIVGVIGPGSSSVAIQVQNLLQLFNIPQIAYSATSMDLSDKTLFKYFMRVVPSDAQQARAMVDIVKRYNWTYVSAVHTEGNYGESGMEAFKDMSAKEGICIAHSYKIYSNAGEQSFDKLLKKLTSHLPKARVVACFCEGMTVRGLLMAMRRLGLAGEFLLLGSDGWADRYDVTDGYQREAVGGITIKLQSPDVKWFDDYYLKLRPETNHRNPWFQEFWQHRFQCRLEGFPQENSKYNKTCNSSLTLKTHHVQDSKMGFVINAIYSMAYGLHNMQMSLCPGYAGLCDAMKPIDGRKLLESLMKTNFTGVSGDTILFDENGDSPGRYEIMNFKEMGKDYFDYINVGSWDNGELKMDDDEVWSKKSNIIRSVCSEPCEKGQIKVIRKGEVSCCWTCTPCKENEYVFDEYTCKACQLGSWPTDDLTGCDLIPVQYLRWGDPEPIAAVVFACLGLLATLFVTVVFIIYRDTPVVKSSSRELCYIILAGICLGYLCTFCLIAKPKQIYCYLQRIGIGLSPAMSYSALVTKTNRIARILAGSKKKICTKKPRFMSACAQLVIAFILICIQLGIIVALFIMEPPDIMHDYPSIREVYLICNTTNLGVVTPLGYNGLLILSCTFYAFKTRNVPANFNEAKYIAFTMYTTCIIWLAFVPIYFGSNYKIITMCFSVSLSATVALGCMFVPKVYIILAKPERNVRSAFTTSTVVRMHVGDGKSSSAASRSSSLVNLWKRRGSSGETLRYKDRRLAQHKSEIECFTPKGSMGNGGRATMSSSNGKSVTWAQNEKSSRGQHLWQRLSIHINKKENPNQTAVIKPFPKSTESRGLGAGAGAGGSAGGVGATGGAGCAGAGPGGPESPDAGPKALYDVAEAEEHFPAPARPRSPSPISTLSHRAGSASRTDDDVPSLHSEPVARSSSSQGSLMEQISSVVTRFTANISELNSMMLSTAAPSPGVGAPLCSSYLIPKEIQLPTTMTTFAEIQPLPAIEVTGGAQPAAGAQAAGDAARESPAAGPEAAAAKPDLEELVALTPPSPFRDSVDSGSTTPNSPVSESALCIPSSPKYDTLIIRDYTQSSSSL
In words: mGlu5 negative allosteric modulator Ca2+ flux assay in HEK 293A cells (Table 1). It is filed as cell-based. To be noted: HEK 293A cells stably expressing mGlu5; Ca2+ flux (Fluo-4); decrease of glutamate EC80 response; read-out: hmGlu5 NAM IC50. A general note: Calcium assays in cells follow changes in intracellular calcium, usually with a dye or a luminescent sensor.
With `Cc1cccc(NC(=O)c2cc(F)c(F)c(-c3cnc(C)s3)c2)n1` [Compound 45, 3,4-difluoro-N-(6-methylpyridin-2-yl)-5-(2-methylthiazol-5-yl)benzamide], the pIC50 (commonly the IC50 on a negative log10 scale, so that one unit is a factor of ten) was 5.91. The same measure for `Cc1cccc(NC(=O)c2cc(F)c(F)c(-c3cncc(F)c3)c2)n1` [Compound 46, 3,4-difluoro-5-(5-fluoropyridin-3-yl)-N-(6-methylpyridin-2-yl)benzamide]: 7.03; for `Cc1cccc(NC(=O)c2cc(-c3cnccc3C)c(F)cc2F)n1` [Compound 47, 2,4-difluoro-N-(6-methylpyridin-2-yl)-5-(4-methylpyridin-3-yl)benzamide]: 6.98; for `Cc1ccncc1-c1cc(C(=O)Nc2cccc(Cl)n2)c(F)cc1F` [Compound 48, N-(6-chloropyridin-2-yl)-2,4-difluoro-5-(4-methylpyridin-3-yl)benzamide]: 6.72.

`Cc1ccncc1-c1cc(C(=O)Nc2ccccn2)cc(F)c1F` [Compound 49, 3,4-difluoro-5-(4-methylpyridin-3-yl)-N-(pyridin-2-yl)benzamide]: the pIC50 is 6.39. The figure for `Cc1ccncc1-c1cc(C(=O)Nc2cccc(Cl)n2)cc(F)c1F` [Compound 50, N-(6-chloropyridin-2-yl)-3,4-difluoro-5-(4-methylpyridin-3-yl)benzamide] is 7.10; for `Cc1csc(NC(=O)c2cc(F)c(F)c(-c3cnccc3C)c2)n1` [Compound 51, 3,4-difluoro-5-(4-methylpyridin-3-yl)-N-(4-methylthiazol-2-yl)benzamide] it is 6.36.
